# Laboratory results published in US7186831B2, “5-halo-2-alkyl[1,2,4]triazolo[1,5-a]pyrimidin-7-amines” (priority 2001, dated 2007).
# Test: log P by HPLC
# Type: physicochemical
# Conditions: EEC directive 79/831 Annex V. A8 by HPLC (gradient method, acetonitrile/0.1% aqueous phosphoric acid)
row,SMILES,logP
1,CC(C)CNc1c(-c2c(F)cc(F)cc2F)c(Cl)nc2nc(C3CC3)nn12 [compound 460],3.69
2,CC1=CCCN(c2c(-c3ccc(F)cc3F)c(Cl)nc3nc(C)nn23)C1 [compound 291],3.49
3,Cc1nc2nc(Cl)c(-c3c(F)cccc3F)c(NOCc3ccc(Cl)cc3Cl)n2n1 [compound 429],3.69
4,Cc1nc2nc(Cl)c(-c3c(F)cc(F)cc3F)c(NC3CC3F)n2n1 (centres unmarked) [compound 439],2.3
5,Cc1nc2nc(Cl)c(-c3c(F)cccc3Cl)c(N3CC=CCC3)n2n1 [compound 265],3.33
6,Cc1nc2nc(Cl)c(-c3c(F)cccc3F)c(N3CC=CCC3)n2n1 [compound 308],3.01
7,Cc1nc2nc(Cl)c(-c3ccccc3F)c(NOCc3cc(Cl)cc(Cl)c3)n2n1 [compound 364],3.76
8,C=C(C)CN(CC)c1c(-c2c(F)cccc2Cl)c(Cl)nc2nc(C3CC3)nn12 [compound 449],4.61
9,Cc1nc2nc(Cl)c(-c3c(F)cccc3F)c(N(C)CC(C)C)n2n1 [compound 335],3.37
10,C=C(C)CN(C)c1c(-c2c(F)cccc2F)c(Cl)nc2nc(C)nn12 [compound 337],3.3
11,Cc1nc2nc(Cl)c(-c3ccccc3Cl)c(NCC#N)n2n1 [compound 403],2.03
12,CON(C)c1c(-c2ccccc2F)c(Cl)nc2nc(C)nn12 [compound 377],2.5
13,CC(=O)C1CCN(c2c(-c3c(F)cccc3F)c(Cl)nc3nc(C)nn23)CC1 [compound 442],2.49
14,Cc1nc2nc(Cl)c(-c3c(F)cccc3F)c(N3CCCC(O)C3)n2n1 (centres unmarked) [compound 314],2.03
15,Cc1nc2nc(Cl)c(-c3ccccc3F)c(NOCc3ccc(C(F)(F)F)cc3)n2n1 [compound 365],3.43
16,"Cc1nc2nc(Cl)c(-c3ccc(F)cc3F)c(NC(C)C(F)(F)F)n2n1 (single isomer, unassigned) [compound 360]",2.96
17,CC1=CCCN(c2c(-c3c(F)cccc3F)c(Cl)nc3nc(C)nn23)C1 [compound 317],3.39

# Second part, the compound after the results:
row,logP,SMILES
1,3.38,Cc1nc2nc(Cl)c(-c3c(F)cc(F)cc3F)c(NC(C)C(C)C)n2n1 (centres unmarked) [compound 523]
2,3.39,Clc1ccccc1-c1c(Cl)nc2nc(C3CC3)nn2c1N1CCCCN1 [compound 488]
3,3.31,C=C(C)CNc1c(-c2c(F)cccc2Cl)c(Cl)nc2nc(C3CC3)nn12 [compound 483]
4,4.14,CC1=CCCN(c2c(-c3ccc(F)cc3F)c(Cl)nc3nc(C4CC4)nn23)C1 [compound 512]
5,3.58,Fc1ccc(-c2c(Cl)nc3nc(C4CC4)nn3c2N2CCCCN2)c(Cl)c1 [compound 504]
6,3.52,Fc1cc(F)c(-c2c(Cl)nc3nc(C4CC4)nn3c2N2CCCC2)c(F)c1 [compound 472]

# Same assay, conditions: HPLC, gradient method, acetonitrile/0.1% aqueous phosphoric acid; EEC directive 79/831 Annex V. A8
row,SMILES,logP
1,Cc1nc2nc(Cl)c(-c3c(F)cc(F)cc3F)c(N3CCC(O)C3)n2n1 (centres unmarked) [compound 98],1.85
2,Cc1nc2nc(Cl)c(-c3ccc(F)cc3F)c(NC(C)C3CCCCC3)n2n1 (centres unmarked) [compound 198],4.24
3,Cc1nc2nc(Cl)c(-c3ccc(F)cc3F)c(N(C)Cc3ccco3)n2n1 [compound 204],3.1
4,N#CCNc1c(-c2c(F)cc(F)cc2F)c(Cl)nc2nc(C(F)(F)F)nn12 [compound 24],2.91
5,CC(Nc1c(-c2c(F)cc(F)cc2F)c(Cl)nc2nc(C(C)(C)C)nn12)C(F)(F)F (centres unmarked) [compound 9],4.24
6,Cc1nc2nc(Cl)c(-c3c(F)cccc3Cl)c(N3CCCC3)n2n1 [compound 251],2.95
7,C=C(C)CNc1c(-c2ccc(F)cc2F)c(Cl)nc2nc(C)nn12 [compound 201],2.72
8,Cc1nc2nc(Cl)c(-c3c(F)cccc3F)c(N3CCCCC3)n2n1 [compound 171],3.17
9,Cc1nc2nc(Cl)c(-c3ccccc3Cl)c(N(C)CC(C)C)n2n1 [compound 221],3.65
10,Cc1nc2nc(Cl)c(-c3ccc(F)cc3F)c(NCC(C)C)n2n1 [compound 191],3
11,Cc1nc2nc(Cl)c(-c3c(F)cc(F)cc3F)c(N(C)CC(C)C)n2n1 [compound 154],3.63
12,CCc1nc2nc(Cl)c(-c3c(F)cc(F)cc3F)c(NCCC(F)(F)F)n2n1 [compound 6],3.18
13,C=C(C)CN(CC)c1c(-c2c(F)cccc2Cl)c(Cl)nc2nc(C)nn12 [compound 114],3.91

# The next lines start with the values.
row,logP,SMILES
1,4.72,"CC(C)C(C)Nc1c(-c2ccc(Cl)cc2Cl)c(Cl)nc2nc(C3CC3)nn12 (single isomer, unassigned) [compound 757]"
2,4.41,CC1CCN(c2c(-c3ccc(F)cc3F)c(Cl)nc3nc(C4CC4)nn23)CC1 [compound 613]
3,3.99,Cc1ccccc1Nc1c(-c2ccc(F)cc2F)c(Cl)nc2nc(C(F)(F)F)nn12 [compound 811]
4,3.77,CC(Nc1c(-c2ccc(F)cc2Cl)c(Cl)nc2nc(C3CC3)nn12)C(F)(F)F (racemic) [compound 748]
5,3.44,CCC(C)Nc1c(-c2c(F)cccc2F)c(Cl)nc2nc(C3CC3)nn12 (centres unmarked) [compound 761]
6,2.8,Cc1nc2nc(Cl)c(-c3ccc(F)cc3Cl)c(NCC(F)(F)F)n2n1 [compound 766]
7,3.7,Fc1ccc(-c2c(Cl)nc3nc(C(F)(F)F)nn3c2NCCC(F)(F)F)c(F)c1 [compound 529]
8,4.44,C=C(C)CN(C)c1c(-c2ccc(F)cc2F)c(Cl)nc2nc(C(F)(F)F)nn12 [compound 546]
9,3.07,OC1CCCN(c2c(-c3ccc(F)cc3F)c(Cl)nc3nc(C(F)(F)F)nn23)C1 (centres unmarked) [compound 799]
10,4.08,Fc1ccc(-c2c(Cl)nc3nc(C4CC4)nn3c2NC2CCCCC2C(F)(F)F)c(F)c1 (centres unmarked) [compound 715]
11,3.18,Cc1nc2nc(Cl)c(-c3c(F)cccc3F)c(NC(C)C(C)C)n2n1 (centres unmarked) [compound 684]
12,3.72,FC(F)(F)CNc1c(-c2ccc(Cl)cc2Cl)c(Cl)nc2nc(C3CC3)nn12 [compound 742]
13,3.73,CC(Nc1c(-c2ccc(F)cc2Cl)c(Cl)nc2nc(C3CC3)nn12)C(F)(F)F (racemic) [compound 747]
14,3.38,CC(C)CNc1c(-c2ccc(F)cc2F)c(Cl)nc2nc(C3CC3)nn12 [compound 644]
15,3.2,"Cc1nc2nc(Cl)c(-c3ccc(F)cc3Cl)c(N[C@@H](C)C(F)(F)F)n2n1 (single isomer, unassigned) [compound 641]"
16,4.45,Fc1ccc(-c2c(Cl)nc3nc(C(F)(F)F)nn3c2N2CCCCC2)c(F)c1 [compound 809]
17,4.39,CCCN(CCOC)c1c(-c2ccc(F)cc2F)c(Cl)nc2nc(C(F)(F)F)nn12 [compound 553]
18,3.66,Fc1cccc(F)c1-c1c(Cl)nc2nc(C3CC3)nn2c1NC1CCCC1 [compound 740]
19,3.17,CC1CCCCN1c1c(-c2c(F)cccc2F)c(Cl)nc2nc(C3CC3)nn12 (centres unmarked) [compound 680]
20,2.18,Cc1nc2nc(Cl)c(-c3c(F)cccc3F)c(N(C)CC#N)n2n1 [compound 564]
21,3.22,Fc1ccc(-c2c(Cl)nc3nc(C4CC4)nn3c2N2CCC3(CC2)OCCO3)c(F)c1 [compound 609]
22,3.07,Cc1nc2nc(Cl)c(-c3c(F)cc(F)cc3F)c(N3CCCCO3)n2n1 [compound 574]
23,3.66,CCN(CCOC)c1c(-c2c(F)cccc2Cl)c(Cl)nc2nc(C3CC3)nn12 [compound 701]
